Reference: US10265374B2, “Occidiofungin formations and uses thereof” (MISSISSIPPI STATE UNIVERSITY, priority 2014, dated 2019)

Assays:
[1] = Pharmacokinetics in mouse (i.v., LC-MS/MS of plasma); format: in vivo; conditions: 2.5 mg/kg i.v., mice
Experimental: Six week old female BALB-C mice were used for this experiment. Occidiofungin, at a concentration of 2.5 mg/kg of body weight, was administered through the tail vein of each mouse. Nine mice were randomly selected for this experiment and were grouped into three groups of three mice each. Blood was drawn at 1, 3, 5, 7, 9, 12, 24 and 48 hours post injection (hpi) from the mice. 15 μl of blood was drawn from the lateral saphenous vein of each mouse for the first three time points. Blood from three mice were pooled together and added to 5 μl of 6.4% citric acid to prevent coagulation. From the fourth time point, blood was drawn from the tail vein of the mice. Blood samples were spun down at 13000 rpm for 10 minutes to separate the plasma. The plasma and the blood pellet obtained were stored separately at −20° C. for analysis. The plasma samples were thawed and the occidiofungin was extracted using a final concentration of 50% methanol. The protein precipitate was spun down at 13000 rpm for 10 minutes and the supernatant was used for analysis. The LC-MS/MS components were carried out at ThermoScientific laboratories. Liquid chromatography was done using Acclaim 120 C18 columns (Length: 150 mm; I.D: 2.1 mm; 5 μm) to purify the occidiofungin in the sample. The occidiofungin was then subjected to MS/MS using the ThermoScientific TSQ Vantage. Fragmentation of the occidiofungin (parent mass 1216 m/z) was carried out and the fragment of 1084 m/z, which corresponds to the occidiofungin molecule without the xylose sugar, was used for quantification of occidiofungin. All data were acquired and analyzed using TraceFinder (v 3.1).

[2] = Solubility of occidiofungin; format: physicochemical
[3] = tested on: Candida albicans; conditions: Candida albicans (References 9, 10); cited from earlier work

Substance: occidiofungin
- clearance from the system by 24 hours [1]: rapidly cleared
- concentration at 9-12 hpi compared to the concentration at 7 hpi [1]: 2.5 times
- concentration of occidiofungin relative to the TC50 value for the cancer strains [1]: three to six fold higher
- time at which occidiofungin concentration peaked [1]: around 9 hpi
- concentration by 48 hours ([1]; limit of quantification 50 ng/ml): below the level of quantification
- peak concentration in blood/plasma ([1]; tail vein): 480 ng/mL
- O.D.600 after addition of vehicle to the purified dried drug ([2]; 1.5% hydroxy propyl-beta-cyclodextrin in PBS, suggests the drug went into solution): negligible absorbance difference to vehicle without drug
- solubility in aqueous buffers ([2]; aqueous buffers): relatively low
- fungicidal activity compared with caspofungin [3]: more rapid
